The text below walks through data of the supplement of paper PMC10307832.

What all share (test): relative viability (nuclei count vs DMSO), 5 days (fraction); higher = more cells survive
Compound in assay [1]: COc1cccc2cc(-c3nc([C@H]4CC[C@H](C(=O)O)CC4)n4ncnc(N)c34)[nH]c12 [OSI-027] + COc1cc2c(Oc3ccc(NC(=O)C4(C(=O)Nc5ccc(F)cc5)CC4)cc3F)ccnc2cc1OCCCN1CCOCC1 [Foretinib] (partner 0.25 µM)
The procedure, abridged: (§1)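 A single step with final 0.05% Triton X-100, 1% formaldehyde and 1 ug/ml Hoechst fixed the cells and stained nuclei 5 days after treatment. Lung cancer cell lines in 1536-well plates had been treated by pin tool the day after seeding with one drug alone or a fixed anchor-drug dose plus five library-drug doses (not always all listed) in √10 steps, and nuclei were counted on 4× images. Relative viability is the ratio of nuclei in treated wells to nuclei in vehicle wells, taken as the median of duplicate plates.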

Compound in assay [2]: COc1cccc2cc(-c3nc([C@H]4CC[C@H](C(=O)O)CC4)n4ncnc(N)c34)[nH]c12 [OSI-027] + N=C(N)NC(=N)NCCc1ccccc1 [Phenformin] (partner 250 µM)
The procedure, abridged:
as §1

Compound in assay [3]: COc1cccc2cc(-c3nc([C@H]4CC[C@H](C(=O)O)CC4)n4ncnc(N)c34)[nH]c12 [OSI-027] + Nc1ncn([C@H]2C[C@H](O)[C@@H](CO)O2)c(=O)n1 [Decitabine] (partner 2 µM)
The method, boiled down:
as §1

Compound in assay [4]: COc1cccc2cc(-c3nc([C@H]4CC[C@H](C(=O)O)CC4)n4ncnc(N)c34)[nH]c12 [OSI-027] + O=C(c1cc(Cc2n[nH]c(=O)c3ccccc23)ccc1F)N1CCN(C(=O)C2CC2)CC1 [Olaparib] (partner 8 µM)
The method, boiled down: as §1

Regarding NCI-H2347, the relative viability in assay [1] (first compound 0.01 µM) is 0.914; in assay [1] (first compound 0.03162 µM), 1.15; in assay [1] (first compound 0.1 µM) it was 0.633; in assay [1] (first compound 0.3162 µM), 0.494; in assay [1] (first compound 1 µM), 0.468; in assay [2] (first compound 0.01 µM), 0.442. Besides, the relative viability in assay [2] (first compound 0.03162 µM) was 0.371; in assay [2] (first compound 0.1 µM), 0.293; in assay [2] (first compound 0.3162 µM) it was 0.262; in assay [2] (first compound 1 µM) it was 0.296; in assay [3] (first compound 0.01 µM) it was 0.639; in assay [3] (first compound 0.03162 µM) it was 0.635. The relative viability in assay [3] (first compound 0.1 µM) worked out at 0.621; in assay [3] (first compound 0.3162 µM), 0.577; in assay [3] (first compound 1 µM) it was 0.454; in assay [4] (first compound 0.01 µM) it was 0.599; in assay [4] (first compound 0.03162 µM), 0.536; in assay [4] (first compound 0.1 µM) it was 0.598. Further, the results for the relative viability in assay [4] (first compound 0.3162 µM) and in assay [4] (first compound 1 µM) were 0.492 and 0.344, respectively.
Take LC-2-ad: the relative viability in assay [1] (first compound 0.01 µM) is 0.826; in assay [1] (first compound 0.03162 µM), 0.899; in assay [1] (first compound 0.1 µM), 0.888; in assay [1] (first compound 0.3162 µM), 0.765; in assay [1] (first compound 1 µM), 0.582; in assay [2] (first compound 0.01 µM), 0.566. Further, the relative viability in assay [2] (first compound 0.03162 µM) is 0.647; in assay [2] (first compound 0.1 µM), 0.51; in assay [2] (first compound 0.3162 µM), 0.509; in assay [2] (first compound 1 µM) it was 0.449; in assay [3] (first compound 0.01 µM) it was 0.827; in assay [3] (first compound 0.03162 µM), 0.842. Further, the relative viability in assay [3] (first compound 0.1 µM) was 0.779; in assay [3] (first compound 0.3162 µM), 0.735; in assay [3] (first compound 1 µM) it was 0.578; in assay [4] (first compound 0.01 µM), 0.774; in assay [4] (first compound 0.03162 µM) it was 0.721; in assay [4] (first compound 0.1 µM), 0.836. Moreover, the relative viability came to 0.87 in assay [4] (first compound 0.3162 µM) and 0.737 in assay [4] (first compound 1 µM).
COR-L 105: the relative viability stood at 1.22 in assay [1] (first compound 0.01 µM); 1.24 in assay [1] (first compound 0.03162 µM); 0.888 in assay [1] (first compound 0.1 µM); 1.29 in assay [1] (first compound 0.3162 µM); 0.995 in assay [1] (first compound 1 µM); 0.47 in assay [2] (first compound 0.01 µM). The relative viability stood at 0.466 in assay [2] (first compound 0.03162 µM); 0.479 in assay [2] (first compound 0.1 µM); 0.351 in assay [2] (first compound 0.3162 µM); 0.359 in assay [2] (first compound 1 µM); 0.739 in assay [3] (first compound 0.01 µM); 0.56 in assay [3] (first compound 0.03162 µM). Moreover, the relative viability is 0.603 in assay [3] (first compound 0.1 µM); 0.639 in assay [3] (first compound 0.3162 µM); 0.647 in assay [3] (first compound 1 µM); 0.713 in assay [4] (first compound 0.01 µM); 0.722 in assay [4] (first compound 0.03162 µM); 0.726 in assay [4] (first compound 0.1 µM). For the same cell line, the figures for the relative viability in assay [4] (first compound 0.3162 µM) and in assay [4] (first compound 1 µM) were 0.571 and 0.685, respectively.
NCI-H838: the relative viability in assay [1] (first compound 0.01 µM) is 1.04; in assay [1] (first compound 0.03162 µM), 0.827; in assay [1] (first compound 0.1 µM), 0.901; in assay [1] (first compound 0.3162 µM), 0.568; in assay [1] (first compound 1 µM), 0.416; in assay [2] (first compound 0.01 µM), 0.588. Moreover, the relative viability in assay [2] (first compound 0.03162 µM) came to 0.62; in assay [2] (first compound 0.1 µM), 0.479; in assay [2] (first compound 0.3162 µM), 0.339; in assay [2] (first compound 1 µM) it was 0.28; in assay [3] (first compound 0.01 µM), 0.503; in assay [3] (first compound 0.03162 µM) it was 0.483. Moreover, the relative viability in assay [3] (first compound 0.1 µM) was 0.403; in assay [3] (first compound 0.3162 µM) it was 0.378; in assay [3] (first compound 1 µM) it was 0.337; in assay [4] (first compound 0.01 µM), 0.791; in assay [4] (first compound 0.03162 µM) it was 0.856; in assay [4] (first compound 0.1 µM) it was 0.705. In addition, the results for the relative viability in assay [4] (first compound 0.3162 µM) and in assay [4] (first compound 1 µM) were 0.492 and 0.437, respectively.
COR-L23: the relative viability in assay [1] (first compound 0.01 µM) came out at 1.01; in assay [1] (first compound 0.03162 µM) it was 0.844; in assay [1] (first compound 0.1 µM), 0.993; in assay [1] (first compound 0.3162 µM) it was 1.06; in assay [1] (first compound 1 µM), 0.772; in assay [2] (first compound 0.01 µM), 0.53. Further, the relative viability in assay [2] (first compound 0.03162 µM) came out at 0.445; in assay [2] (first compound 0.1 µM), 0.476; in assay [2] (first compound 0.3162 µM), 0.445; in assay [2] (first compound 1 µM), 0.206; in assay [3] (first compound 0.01 µM) it was 0.482; in assay [3] (first compound 0.03162 µM) it was 0.474. The relative viability in assay [3] (first compound 0.1 µM) turned out to be 0.379; in assay [3] (first compound 0.3162 µM), 0.372; in assay [3] (first compound 1 µM), 0.236; in assay [4] (first compound 0.01 µM) it was 0.377; in assay [4] (first compound 0.03162 µM), 0.335; in assay [4] (first compound 0.1 µM) it was 0.208. Moreover, the relative viability is 0.401 in assay [4] (first compound 0.3162 µM) and 0.279 in assay [4] (first compound 1 µM).
In the case of EMC-BAC-2, the relative viability in assay [1] (first compound 0.01 µM) was determined as 0.898; in assay [1] (first compound 0.03162 µM) it was 0.972; in assay [1] (first compound 0.1 µM), 0.887; in assay [1] (first compound 0.3162 µM), 0.745; in assay [1] (first compound 1 µM), 0.329; in assay [2] (first compound 0.01 µM), 0.513. Further, the relative viability was 0.543 in assay [2] (first compound 0.03162 µM); 0.466 in assay [2] (first compound 0.1 µM); 0.385 in assay [2] (first compound 0.3162 µM); 0.263 in assay [2] (first compound 1 µM); 0.97 in assay [3] (first compound 0.01 µM); 0.992 in assay [3] (first compound 0.03162 µM). The relative viability is 0.934 in assay [3] (first compound 0.1 µM); 0.827 in assay [3] (first compound 0.3162 µM); 0.588 in assay [3] (first compound 1 µM); 0.487 in assay [4] (first compound 0.01 µM); 0.489 in assay [4] (first compound 0.03162 µM); 0.468 in assay [4] (first compound 0.1 µM). The relative viability in assay [4] (first compound 0.3162 µM) is 0.402; in assay [4] (first compound 1 µM), 0.29.
NCI-H3122: the relative viability in assay [1] (first compound 0.01 µM) was found to be 1.02; in assay [1] (first compound 0.03162 µM) it was 0.998; in assay [1] (first compound 0.1 µM), 1.03; in assay [1] (first compound 0.3162 µM), 0.98; in assay [1] (first compound 1 µM) it was 0.45; in assay [2] (first compound 0.01 µM), 0.409. Besides, the relative viability is 0.41 in assay [2] (first compound 0.03162 µM); 0.454 in assay [2] (first compound 0.1 µM); 0.443 in assay [2] (first compound 0.3162 µM); 0.288 in assay [2] (first compound 1 µM); 0.415 in assay [3] (first compound 0.01 µM); 0.547 in assay [3] (first compound 0.03162 µM). The relative viability stood at 0.457 in assay [3] (first compound 0.1 µM); 0.345 in assay [3] (first compound 0.3162 µM); 0.154 in assay [3] (first compound 1 µM); 0.759 in assay [4] (first compound 0.01 µM); 0.604 in assay [4] (first compound 0.03162 µM); 0.682 in assay [4] (first compound 0.1 µM). For the same cell line, the relative viability was 0.647 in assay [4] (first compound 0.3162 µM) and 0.407 in assay [4] (first compound 1 µM).
